Key:
Assay type in all cases: in vivo
Abutilon theophrasti [1] = experiment: Herbicidal action post-emergence (greenhouse pot trial); settings: scored visually after about 3 weeks vs untreated controls
In short: (§1)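 Percent herbicidal efficacy, assessed by eye about 3 weeks after spraying, compares treated with untreated plants. Treatment is a post-emergence spray at the one-leaf stage, using a WP or EC preparation plus 0.5% additive in 600 L/ha of water, at 80 g/ha or lower.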

Amaranthus retroflexus [2] = experiment: as above; settings: scored visually after about 3 weeks vs untreated controls
In short: as §1

Matricaria inodora [3] = experiment: as above; settings: scored visually after about 3 weeks vs untreated controls
In short: as §1

Polygonum convolvulus [4] = experiment: as above; settings: scored visually after about 3 weeks vs untreated controls
In short: as §1

Veronica persica [5] = experiment: as above
In short: as §1

Viola tricolor [6] = experiment: as above
In short: as §1

Oryza sativa [7] = experiment: Crop compatibility post-emergence (greenhouse pot trial); settings: application rate 20 g/ha
In short: (§2)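 Visual % damage vs untreated controls, ~3 wk post-spray (100% = plants died, 0% = as control). Plants in sandy loam, greenhouse, sprayed at one-leaf stage (2–3 wk after sowing); WP/EC in water + 0.5% additive, 600 L/ha.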

Triticum aestivum = experiment: as above; settings: application rate 20 g/ha
In short: as §2

Zea mays [8] = experiment: as above
In short: as §2

Abutilon theophrasti [9] = experiment: Herbicidal action pre-emergence (greenhouse pot trial); settings: scored after about 3 weeks
In short: (§3)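 Pots containing sown seeds beneath a soil layer were sprayed with the test formulations at an application rate of 320 g/ha or lower. Percent efficacy was assigned by eye about three weeks afterwards, with dead plants scored as 100%.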

Amaranthus retroflexus [10] = experiment: as above; settings: scored after about 3 weeks
In short: as §3

Matricaria inodora [11] = experiment: as above; settings: scored after about 3 weeks
In short: as §3

Polygonum convolvulus [12] = experiment: as above; settings: application rate 80 g/ha, scored after about 3 weeks
In short: as §3

Veronica persica [13] = experiment: as above
In short: as §3

Viola tricolor [14] = experiment: as above; settings: scored after about 3 weeks
In short: as §3

Glycine max = experiment: Crop compatibility pre-emergence (greenhouse pot trial); settings: application rate 80 g/ha, effect vs untreated controls
In short: (§4)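 Visual percentage scoring against untreated controls, about 3 weeks after treatment, gave the crop injury values (100% = plants died, 0% = like controls). Compounds, as wettable powders or emulsion concentrates, were sprayed onto covering soil over sown seeds at 600 L/ha water with 0.5% additive.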

Zea mays [15] = experiment: as above; settings: application rate 80 g/ha, effect vs untreated controls
In short: as §4

Digitaria sanguinalis [16] = experiment: Herbicidal action post-emergence (greenhouse pot trial); settings: application rate 20 g/ha
In short: as §1

Echinochloa crus-galli [17] = experiment: as above; settings: scored visually after about 3 weeks vs untreated controls
In short: as §1

Pharbitis purpurea [18] = experiment: as above
In short: as §1

Setaria viridis [19] = experiment: as above; settings: scored visually after about 3 weeks vs untreated controls
In short: as §1

Stellaria media [20] = experiment: as above; settings: scored visually after about 3 weeks vs untreated controls
In short: as §1

Digitaria sanguinalis [21] = experiment: Herbicidal action pre-emergence (greenhouse pot trial); settings: application rate 80 g/ha
In short: as §3

Echinochloa crus-galli [22] = experiment: as above; settings: scored after about 3 weeks
In short: as §3

Pharbitis purpurea [23] = experiment: as above
In short: as §3

Setaria viridis [24] = experiment: as above; settings: scored after about 3 weeks
In short: as §3

Stellaria media [25] = experiment: as above; settings: scored after about 3 weeks
In short: as §3

Oryza sativa [26] = experiment: Crop compatibility pre-emergence (greenhouse pot trial); settings: effect vs untreated controls
In short: as §4

Alopecurus myosuroides [27] = experiment: Herbicidal action post-emergence (greenhouse pot trial); settings: application rate 80 g/ha, scored visually after about 3 weeks vs untreated controls
In short: as §1

Avena fatua [28] = experiment: as above; settings: application rate 80 g/ha, scored visually after about 3 weeks vs untreated controls
In short: as §1

Alopecurus myosuroides [29] = experiment: Herbicidal action pre-emergence (greenhouse pot trial); settings: application rate 320 g/ha, scored after about 3 weeks
In short: as §3

Avena fatua [30] = experiment: as above; settings: application rate 320 g/ha
In short: as §3

Compound: CC(Sc1cc(-n2c(=O)cc(C(F)(F)F)n(C)c2=O)c(F)cc1Cl)C(=O)OCC1CCCS1 (centres unmarked) [I.1-81]
- Abutilon theophrasti (Efficacy in %) (Abutilon theophrasti [1]; application rate 20 g/ha): 100%
- Amaranthus retroflexus (Efficacy in %) (Amaranthus retroflexus [2]; application rate 20 g/ha): 100%
- Matricaria inodora (Efficacy in %) (Matricaria inodora [3]; application rate 20 g/ha): 90%
- Polygonum convolvulus (Efficacy in %) (Polygonum convolvulus [4]; application rate 20 g/ha): 90%
- Veronica persica (Efficacy in %) (Veronica persica [5]; application rate 20 g/ha): 100%
- Viola tricolor (Efficacy in %) (Viola tricolor [6]; application rate 20 g/ha): 100%
- Oryza sativa (Efficacy in %) (Oryza sativa [7]): 0%
- Triticum aestivum (Efficacy in %) (Triticum aestivum): 20%
- Zea mays (Efficacy in %) (Zea mays [8]; application rate 20 g/ha): 10%
- Abutilon theophrasti (Efficacy in %) (Abutilon theophrasti [9]; application rate 80 g/ha): 100%
- Amaranthus retroflexus (Efficacy in %) (Amaranthus retroflexus [10]; application rate 80 g/ha): 100%
- Matricaria inodora (Efficacy in %) (Matricaria inodora [11]; application rate 80 g/ha): 80%
- Polygonum convolvulus (Efficacy in %) (Polygonum convolvulus [12]): 100%
- Veronica persica (Efficacy in %) (Veronica persica [13]; application rate 80 g/ha): 80%
- Viola tricolor (Efficacy in %) (Viola tricolor [14]; application rate 80 g/ha): 100%
- Glycine max (Efficacy in %) (Glycine max): 0%
- Zea mays (Efficacy in %) (Zea mays [15]): 0%

Compound: CCC(Sc1cc(-n2c(=O)cc(C(F)(F)F)n(C)c2=O)c(F)cc1Cl)C(=O)OCC1CCCO1 (centres unmarked) [I.2-71]
- Abutilon theophrasti (Efficacy in %) (Abutilon theophrasti [1]; application rate 20 g/ha): 100%
- Amaranthus retroflexus (Efficacy in %) (Amaranthus retroflexus [2]; application rate 20 g/ha): 100%
- Digitaria sanguinalis (Efficacy in %) (Digitaria sanguinalis [16]): 100%
- Echinochloa crus-galli (Efficacy in %) (Echinochloa crus-galli [17]; application rate 20 g/ha): 80%
- Matricaria inodora (Efficacy in %) (Matricaria inodora [3]; application rate 20 g/ha): 100%
- Pharbitis purpurea (Efficacy in %) (Pharbitis purpurea [18]; application rate 20 g/ha): 100%
- Polygonum convolvulus (Efficacy in %) (Polygonum convolvulus [4]; application rate 20 g/ha): 100%
- Setaria viridis (Efficacy in %) (Setaria viridis [19]; application rate 20 g/ha): 90%
- Stellaria media (Efficacy in %) (Stellaria media [20]; application rate 20 g/ha): 100%
- Veronica persica (Efficacy in %) (Veronica persica [5]; application rate 20 g/ha): 100%
- Viola tricolor (Efficacy in %) (Viola tricolor [6]; application rate 20 g/ha): 100%
- Oryza sativa (Efficacy in %) (Oryza sativa [7]): 20%
- Triticum aestivum (Efficacy in %) (Triticum aestivum): 20%
- Zea mays (Efficacy in %) (Zea mays [8]; application rate 5 g/ha): 0%
- Abutilon theophrasti (Efficacy in %) (Abutilon theophrasti [9]; application rate 80 g/ha): 100%
- Amaranthus retroflexus (Efficacy in %) (Amaranthus retroflexus [10]; application rate 80 g/ha): 100%
- Digitaria sanguinalis (Efficacy in %) (Digitaria sanguinalis [21]): 100%
- Echinochloa crus-galli (Efficacy in %) (Echinochloa crus-galli [22]; application rate 80 g/ha): 100%
- Matricaria inodora (Efficacy in %) (Matricaria inodora [11]; application rate 80 g/ha): 100%
- Pharbitis purpurea (Efficacy in %) (Pharbitis purpurea [23]; application rate 80 g/ha): 100%
- Polygonum convolvulus (Efficacy in %) (Polygonum convolvulus [12]): 100%
- Setaria viridis (Efficacy in %) (Setaria viridis [24]; application rate 80 g/ha): 100%
- Stellaria media (Efficacy in %) (Stellaria media [25]; application rate 80 g/ha): 100%
- Veronica persica (Efficacy in %) (Veronica persica [13]; application rate 80 g/ha): 100%
- Viola tricolor (Efficacy in %) (Viola tricolor [14]; application rate 80 g/ha): 100%
- Glycine max (Efficacy in %) (Glycine max): 0%
- Oryza sativa (Efficacy in %) (Oryza sativa [26]; application rate 20 g/ha): 0%
- Zea mays (Efficacy in %) (Zea mays [15]): 10%

Compound: Cn1c(C(F)(F)F)cc(=O)n(-c2cc(SCC(=O)NCC3CCCO3)c(Cl)cc2F)c1=O (centres unmarked) [I.8-271]
- Abutilon theophrasti (Efficacy in %) (Abutilon theophrasti [1]; application rate 80 g/ha): 100%
- Alopecurus myosuroides (Efficacy in %) (Alopecurus myosuroides [27]): 100%
- Amaranthus retroflexus (Efficacy in %) (Amaranthus retroflexus [2]; application rate 80 g/ha): 100%
- Avena fatua (Efficacy in %) (Avena fatua [28]): 90%
- Echinochloa crus-galli (Efficacy in %) (Echinochloa crus-galli [17]; application rate 80 g/ha): 80%
- Matricaria inodora (Efficacy in %) (Matricaria inodora [3]; application rate 80 g/ha): 100%
- Pharbitis purpurea (Efficacy in %) (Pharbitis purpurea [18]; application rate 80 g/ha): 100%
- Polygonum convolvulus (Efficacy in %) (Polygonum convolvulus [4]; application rate 80 g/ha): 100%
- Setaria viridis (Efficacy in %) (Setaria viridis [19]; application rate 80 g/ha): 100%
- Stellaria media (Efficacy in %) (Stellaria media [20]; application rate 80 g/ha): 100%
- Veronica persica (Efficacy in %) (Veronica persica [5]; application rate 80 g/ha): 100%
- Viola tricolor (Efficacy in %) (Viola tricolor [6]; application rate 80 g/ha): 100%
- Zea mays (Efficacy in %) (Zea mays [8]; application rate 80 g/ha): 20%
- Abutilon theophrasti (Efficacy in %) (Abutilon theophrasti [9]; application rate 320 g/ha): 100%
- Alopecurus myosuroides (Efficacy in %) (Alopecurus myosuroides [29]): 90%
- Amaranthus retroflexus (Efficacy in %) (Amaranthus retroflexus [10]; application rate 320 g/ha): 100%
- Avena fatua (Efficacy in %) (Avena fatua [30]): 90%
- Echinochloa crus-galli (Efficacy in %) (Echinochloa crus-galli [22]; application rate 320 g/ha): 80%
- Matricaria inodora (Efficacy in %) (Matricaria inodora [11]; application rate 320 g/ha): 100%
- Pharbitis purpurea (Efficacy in %) (Pharbitis purpurea [23]; application rate 320 g/ha): 100%
- Setaria viridis (Efficacy in %) (Setaria viridis [24]; application rate 320 g/ha): 100%
- Stellaria media (Efficacy in %) (Stellaria media [25]; application rate 320 g/ha): 90%
- Veronica persica (Efficacy in %) (Veronica persica [13]; application rate 320 g/ha): 100%
- Viola tricolor (Efficacy in %) (Viola tricolor [14]; application rate 320 g/ha): 100%
- Oryza sativa (Efficacy in %) (Oryza sativa [26]; application rate 80 g/ha): 0%
- Zea mays (Efficacy in %) (Zea mays [15]): 20%

Source: patent US11497212B2, “Substituted thiophenyl uracils, salts thereof and the use thereof as herbicidal agents” (Syngenta Crop Protection AG, priority 2017, dated 2022)
